Test results taken from the supplement of paper PMC12463676, “Small-molecule dissolution of stress granules by redox modulation benefits ALS models” (Nature Chemical Biology, 2025).

How the values were obtained:
[1] = compound: NC(=O)CCCCC1CCSS1 [lipoamide]; experiment: thermal stability z-score vs DMSO; higher = more thermally stabilized by treatment; conditions: HeLa, lipoamide concentration 100 µM
Description: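 Cellular thermal proteome profiling in HeLa cells. Cells were treated with 100 µM lipoamide for 1 h, with or without 1 mM arsenate for a further 1 h, then heated to ten temperatures (37-66.3 °C), and soluble protein was quantified by TMT mass spectrometry relative to 0.1% DMSO controls. The thermal stability score (sum of log2 fold changes minus the abundance score) was transformed to a z-score; mean of n = 3 experiments.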

[2] = compound: O=[As]([O-])(O)O.[K+] [potassium arsenate]; experiment: as above; conditions: HeLa; arsenate concentration 1 mM
Description: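 Cellular thermal proteome profiling in HeLa cells treated with 1 mM arsenate for 1 h (DMSO pretreatment), heated to ten temperatures (37-66.3 °C). Soluble protein was quantified by TMT mass spectrometry relative to DMSO controls; the thermal stability score was transformed to a z-score; mean of n = 3 experiments.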

[3] = arsenate co-treatment: 1 mM arsenate 1 h
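Also: each temperature applied for 3 min, abundance score taken as mean log2 fold change at the two lowest temperatures, z-score obtained by mean subtraction and division by SD.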

Chain of UniProt Q96AT9 (Q96AT9 whole entry): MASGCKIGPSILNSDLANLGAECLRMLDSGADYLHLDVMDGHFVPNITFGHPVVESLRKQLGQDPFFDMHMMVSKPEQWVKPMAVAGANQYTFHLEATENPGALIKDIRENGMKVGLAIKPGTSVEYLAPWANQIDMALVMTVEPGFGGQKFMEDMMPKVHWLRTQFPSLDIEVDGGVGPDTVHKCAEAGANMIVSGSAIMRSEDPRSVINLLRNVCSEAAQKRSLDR
Chain of UniProt Q8NI22 (Q8NI22 whole entry): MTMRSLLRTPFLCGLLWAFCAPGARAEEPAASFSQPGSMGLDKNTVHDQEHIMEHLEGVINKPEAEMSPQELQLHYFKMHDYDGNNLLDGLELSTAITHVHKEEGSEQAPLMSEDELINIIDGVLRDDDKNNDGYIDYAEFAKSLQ
Chain of UniProt P11413 (P11413 whole entry): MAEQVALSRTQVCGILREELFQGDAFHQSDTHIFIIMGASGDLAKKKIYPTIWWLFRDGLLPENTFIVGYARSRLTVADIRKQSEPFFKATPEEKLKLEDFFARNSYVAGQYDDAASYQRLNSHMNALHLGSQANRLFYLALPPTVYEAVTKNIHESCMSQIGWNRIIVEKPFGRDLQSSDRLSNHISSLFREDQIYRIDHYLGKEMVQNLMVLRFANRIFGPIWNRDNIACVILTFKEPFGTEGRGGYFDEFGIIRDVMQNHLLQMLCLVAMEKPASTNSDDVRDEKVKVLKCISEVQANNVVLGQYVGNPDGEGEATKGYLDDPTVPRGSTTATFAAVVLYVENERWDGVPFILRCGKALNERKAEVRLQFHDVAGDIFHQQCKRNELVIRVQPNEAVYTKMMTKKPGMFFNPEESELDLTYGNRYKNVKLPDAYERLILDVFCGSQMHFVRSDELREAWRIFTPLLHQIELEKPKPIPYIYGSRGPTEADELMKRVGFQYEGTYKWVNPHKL
Chain of UniProt Q9UJY5 (Q9UJY5 whole entry): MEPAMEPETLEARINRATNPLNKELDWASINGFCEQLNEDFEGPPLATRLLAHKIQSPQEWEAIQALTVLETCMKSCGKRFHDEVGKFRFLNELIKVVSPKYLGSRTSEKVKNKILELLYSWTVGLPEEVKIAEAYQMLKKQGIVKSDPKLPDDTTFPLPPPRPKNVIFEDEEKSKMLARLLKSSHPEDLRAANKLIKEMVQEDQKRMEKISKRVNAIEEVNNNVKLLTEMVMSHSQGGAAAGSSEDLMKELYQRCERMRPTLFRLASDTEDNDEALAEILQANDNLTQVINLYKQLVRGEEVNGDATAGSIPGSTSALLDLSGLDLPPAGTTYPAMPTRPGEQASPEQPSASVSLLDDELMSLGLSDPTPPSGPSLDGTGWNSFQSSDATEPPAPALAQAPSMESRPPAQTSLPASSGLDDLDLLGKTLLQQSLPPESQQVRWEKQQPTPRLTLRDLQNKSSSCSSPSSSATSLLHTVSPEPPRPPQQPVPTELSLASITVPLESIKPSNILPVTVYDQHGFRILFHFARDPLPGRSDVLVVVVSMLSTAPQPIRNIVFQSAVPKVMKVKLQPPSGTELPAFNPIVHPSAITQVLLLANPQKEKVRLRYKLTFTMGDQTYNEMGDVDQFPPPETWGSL
Chain of UniProt Q16512 (Q16512 whole entry, looked up): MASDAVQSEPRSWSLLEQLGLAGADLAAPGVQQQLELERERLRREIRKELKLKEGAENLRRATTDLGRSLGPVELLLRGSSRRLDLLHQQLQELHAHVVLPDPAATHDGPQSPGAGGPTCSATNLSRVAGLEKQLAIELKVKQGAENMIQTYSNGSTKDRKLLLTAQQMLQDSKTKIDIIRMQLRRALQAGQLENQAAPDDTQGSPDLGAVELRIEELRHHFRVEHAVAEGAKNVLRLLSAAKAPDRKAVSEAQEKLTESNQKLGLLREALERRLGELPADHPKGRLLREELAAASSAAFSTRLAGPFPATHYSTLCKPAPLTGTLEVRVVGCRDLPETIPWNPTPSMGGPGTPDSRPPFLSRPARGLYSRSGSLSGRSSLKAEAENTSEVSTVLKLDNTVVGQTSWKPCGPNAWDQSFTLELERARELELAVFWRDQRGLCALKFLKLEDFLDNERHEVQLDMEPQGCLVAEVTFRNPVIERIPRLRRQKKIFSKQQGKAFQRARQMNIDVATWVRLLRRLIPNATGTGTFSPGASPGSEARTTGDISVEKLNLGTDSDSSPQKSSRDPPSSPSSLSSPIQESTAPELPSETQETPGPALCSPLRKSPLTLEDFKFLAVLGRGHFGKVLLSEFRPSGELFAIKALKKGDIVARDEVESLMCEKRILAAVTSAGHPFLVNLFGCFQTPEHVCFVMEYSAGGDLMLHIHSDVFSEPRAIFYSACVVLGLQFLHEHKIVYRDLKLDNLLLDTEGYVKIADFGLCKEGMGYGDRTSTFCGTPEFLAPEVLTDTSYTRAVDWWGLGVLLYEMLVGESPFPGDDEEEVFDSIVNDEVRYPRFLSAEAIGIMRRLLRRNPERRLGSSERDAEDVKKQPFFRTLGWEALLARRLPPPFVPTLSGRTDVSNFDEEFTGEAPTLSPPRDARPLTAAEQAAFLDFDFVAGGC
Chain of UniProt A6NIH7 (A6NIH7 whole entry): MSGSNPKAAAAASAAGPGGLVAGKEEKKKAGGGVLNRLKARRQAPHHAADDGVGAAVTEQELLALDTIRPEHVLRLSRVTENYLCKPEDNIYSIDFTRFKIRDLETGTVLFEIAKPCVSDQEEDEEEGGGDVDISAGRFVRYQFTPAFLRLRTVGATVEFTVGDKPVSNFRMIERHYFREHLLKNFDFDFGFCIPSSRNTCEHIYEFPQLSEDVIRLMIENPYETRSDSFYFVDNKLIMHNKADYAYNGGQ
Chain of UniProt Q6PIJ6 (Q6PIJ6 whole entry): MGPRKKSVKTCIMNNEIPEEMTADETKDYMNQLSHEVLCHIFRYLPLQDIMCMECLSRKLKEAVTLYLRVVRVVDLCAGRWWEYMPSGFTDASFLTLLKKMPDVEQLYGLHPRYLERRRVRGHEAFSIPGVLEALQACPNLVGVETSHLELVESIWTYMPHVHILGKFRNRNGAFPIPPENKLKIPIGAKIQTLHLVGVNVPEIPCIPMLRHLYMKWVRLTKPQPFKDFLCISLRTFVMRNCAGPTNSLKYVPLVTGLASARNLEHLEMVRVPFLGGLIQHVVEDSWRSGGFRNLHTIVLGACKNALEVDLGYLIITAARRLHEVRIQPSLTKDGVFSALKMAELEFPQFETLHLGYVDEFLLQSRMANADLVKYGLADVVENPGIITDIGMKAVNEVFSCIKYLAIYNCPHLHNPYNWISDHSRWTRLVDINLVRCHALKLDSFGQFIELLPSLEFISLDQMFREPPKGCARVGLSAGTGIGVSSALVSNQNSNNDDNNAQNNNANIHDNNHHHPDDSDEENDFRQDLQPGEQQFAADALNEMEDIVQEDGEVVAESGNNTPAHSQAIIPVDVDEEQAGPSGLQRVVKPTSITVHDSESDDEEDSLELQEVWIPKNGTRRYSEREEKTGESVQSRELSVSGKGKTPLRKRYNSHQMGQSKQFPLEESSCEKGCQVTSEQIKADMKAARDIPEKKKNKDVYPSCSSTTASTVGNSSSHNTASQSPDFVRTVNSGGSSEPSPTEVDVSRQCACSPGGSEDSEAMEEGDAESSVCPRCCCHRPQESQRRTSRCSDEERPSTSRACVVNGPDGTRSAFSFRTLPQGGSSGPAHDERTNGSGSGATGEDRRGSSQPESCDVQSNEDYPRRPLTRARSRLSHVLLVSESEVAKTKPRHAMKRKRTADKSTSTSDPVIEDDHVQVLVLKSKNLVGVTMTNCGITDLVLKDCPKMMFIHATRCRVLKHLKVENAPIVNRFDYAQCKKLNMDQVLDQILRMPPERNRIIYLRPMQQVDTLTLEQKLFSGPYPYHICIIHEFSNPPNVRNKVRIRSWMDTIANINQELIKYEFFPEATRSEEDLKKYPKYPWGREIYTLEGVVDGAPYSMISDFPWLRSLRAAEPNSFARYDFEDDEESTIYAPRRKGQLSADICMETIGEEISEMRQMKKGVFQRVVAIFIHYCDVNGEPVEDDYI
Chain of UniProt Q9NVJ2 (Q9NVJ2 whole entry): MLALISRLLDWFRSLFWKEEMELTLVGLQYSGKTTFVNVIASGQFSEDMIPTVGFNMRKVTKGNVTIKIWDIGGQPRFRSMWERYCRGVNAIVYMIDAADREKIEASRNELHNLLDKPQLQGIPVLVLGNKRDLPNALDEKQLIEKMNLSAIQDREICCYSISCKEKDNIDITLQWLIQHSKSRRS
Chain of UniProt Q96SZ6 (Q96SZ6 whole entry): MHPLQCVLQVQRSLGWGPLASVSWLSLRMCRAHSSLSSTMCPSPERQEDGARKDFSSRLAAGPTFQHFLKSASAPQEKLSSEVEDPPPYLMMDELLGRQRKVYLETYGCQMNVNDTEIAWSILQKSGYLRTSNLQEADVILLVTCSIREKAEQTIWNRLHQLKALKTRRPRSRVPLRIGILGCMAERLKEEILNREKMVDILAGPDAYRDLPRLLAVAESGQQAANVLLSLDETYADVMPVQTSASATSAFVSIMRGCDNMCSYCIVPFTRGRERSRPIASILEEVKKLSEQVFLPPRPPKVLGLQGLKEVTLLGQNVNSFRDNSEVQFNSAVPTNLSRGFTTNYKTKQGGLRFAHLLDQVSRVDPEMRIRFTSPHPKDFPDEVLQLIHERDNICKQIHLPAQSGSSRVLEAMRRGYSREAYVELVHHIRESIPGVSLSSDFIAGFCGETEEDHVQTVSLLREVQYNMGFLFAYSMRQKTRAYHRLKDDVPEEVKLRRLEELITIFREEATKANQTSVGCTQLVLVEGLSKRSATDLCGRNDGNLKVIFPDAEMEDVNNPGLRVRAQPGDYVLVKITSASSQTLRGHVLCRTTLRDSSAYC
Chain of UniProt P53701 (P53701 whole entry): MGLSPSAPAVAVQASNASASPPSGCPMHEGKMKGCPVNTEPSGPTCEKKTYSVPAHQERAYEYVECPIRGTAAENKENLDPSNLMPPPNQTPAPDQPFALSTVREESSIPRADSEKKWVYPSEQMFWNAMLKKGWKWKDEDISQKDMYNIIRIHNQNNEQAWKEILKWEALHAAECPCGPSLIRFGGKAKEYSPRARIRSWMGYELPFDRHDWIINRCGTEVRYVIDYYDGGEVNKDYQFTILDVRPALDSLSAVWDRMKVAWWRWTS

| Target | thermal stability z-score [1, 3] | thermal stability z-score ([1]; arsenate co-treatment: none) | thermal stability z-score [2] |
| --- | --- | --- | --- |
| ARL8B (UniProt Q9NVJ2) | -0.122 | -0.507 | -0.267 |
| ZDHHC20 (UniProt Q5W0Z9) | 0.527 | 0.247 | 0.242 |
| FER (UniProt P16591) | 0.209 | 0.182 | 0.326 |
| EPN2 (UniProt O95208) | 1.13 | 0.804 | -0.0882 |
| SH3PXD2A (UniProt Q5TCZ1) | -0.325 | -1.05 | 0.207 |
| HCCS (UniProt P53701) | -0.0583 | -0.124 | -0.0765 |
| NEGR1 (UniProt Q7Z3B1) | 0.758 | -0.0845 | -0.617 |
| MRPS25 (UniProt P82663) | 0.0295 | 0.0583 | 0.445 |
| FEN1 (UniProt P39748) | -0.489 | 0.469 | 0.572 |
| PRIM1 (UniProt P49642) | -0.361 | -0.125 | -0.439 |
| FKBP2 (UniProt P26885) | -3.2 | -3.35 | 0.177 |
| MITD1 (UniProt Q8WV92) | 0.39 | 0.109 | 0.168 |
| PTGR1 (UniProt Q14914) | 1.49 | 1.67 | 0.672 |
| HARS (UniProt P12081) | -0.0978 | -0.228 | 1.38 |
| UNC119B (UniProt A6NIH7) | 1.07 | 0.468 | -0.0898 |
| ATP1A1 (UniProt P05023) | 0.0243 | 0.186 | -0.742 |
| FBXO38 (UniProt Q6PIJ6) | 0.0679 | -0.115 | -0.981 |
| MCFD2 (UniProt Q8NI22) | -0.221 | -0.109 | -0.565 |
| GGA1 (UniProt Q9UJY5) | -0.523 | -0.393 | 0.27 |
| PKN1 (UniProt Q16512) | -0.436 | -0.52 | -0.513 |
| G6PD (UniProt P11413) | 0.218 | 0.206 | 0.535 |
| RMDN3 (UniProt Q96TC7) | -0.522 | -0.501 | 0.289 |
| CDK5RAP1 (UniProt Q96SZ6) | 0.128 | 0.198 | 0.157 |
| ASL (UniProt P04424) | 0.153 | -0.627 | -0.112 |
| CNBP (UniProt P62633) | 0.317 | 0.142 | -0.088 |
| RPE (UniProt Q96AT9) | 0.536 | 0.285 | -0.0195 |
| DLD (UniProt P09622) | 0.662 | 1.04 | -0.681 |
| RARS2 (UniProt Q5T160) | 0.0904 | -0.0472 | 0.328 |
